In US6770649B2, “1-[1-(hetero)aryl-1-perhydroxyalkylmethyl]-piperazine compounds, process for their preparation and pharmaceutical compositions containing them” (Solvay Pharmaceuticals GmbH, priority 2001, dated 2004):
Where two headings read alike, the source gives them in different places.

How the values were obtained:
[1] = target: T1, human NK-2 receptor (Homo sapiens, UniProt P21452); assay: Binding power of the test substances to NK-2 receptors in vitro ([3H]-SR 48968 displacement, CHO cell membranes); conditions: displacement of [3H]-SR 48968, 90 min incubation, average of at least three measurements, 10^-6 to 10^-10 mol/l, read-out: pKi, affinity to human NK-2 receptors (converted)
T1 construct: expressed in transfected cells; host or cells: CHO cells (membrane preparation)
T1 sequence (P21452 1-398): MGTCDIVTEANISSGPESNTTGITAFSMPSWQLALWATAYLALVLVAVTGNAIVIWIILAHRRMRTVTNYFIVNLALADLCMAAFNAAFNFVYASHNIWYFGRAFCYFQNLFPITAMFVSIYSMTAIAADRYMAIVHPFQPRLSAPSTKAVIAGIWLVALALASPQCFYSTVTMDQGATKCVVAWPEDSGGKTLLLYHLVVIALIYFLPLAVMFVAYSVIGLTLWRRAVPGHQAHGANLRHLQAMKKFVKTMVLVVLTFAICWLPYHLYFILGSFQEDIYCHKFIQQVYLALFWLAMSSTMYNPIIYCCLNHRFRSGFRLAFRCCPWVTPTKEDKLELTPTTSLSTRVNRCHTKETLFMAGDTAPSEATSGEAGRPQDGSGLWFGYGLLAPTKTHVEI
Method: 1. Determination of the Binding Power of the Test Substances to NK-2 Receptors in vitro
The affinity of the test substances to human NK-2 receptors was measured in vitro. The ability of the test substances to displace the selective NK-2 receptor antagonist SR 48968 (=saredutant) used as reference ligand from its corresponding bond was determined.
The receptor binding studies were carried out with radioactively marked [^3H]-SR 48968 (from Amersham) as ligand. For the binding test, different samples of a membrane preparation of CHO cells (=[…]), which express the human NK-2 receptor (for preparation, see N. P. Gerard et al., Journal of Biological Chemistry 265/33 (1990) 20455-20462), were incubated for 90 minutes (=min.) with a solution of the marked ligand, with the incubation mixtures containing no test substance or additions of different concentrations of test substance. Then in each case the membrane-bound ligands in the samples were separated from free ligands by filtration. The fraction remaining in the filter was washed several times with buffer solution, before its radioactivity was measured using a liquid scintillation counter. That concentration which effects half-maximum displacement of the bound reference ligand was determined as IC50 of the respective test substance. The inhibition constant (Ki value) of the test substance was calculated from the respective IC50 value, and was stated as the negative logarithmised value thereof (pKi).
For the compounds of Examples 1 to 39, the affinity to human NK-2 receptors was determined in each case by at least three measurements of the test substances in concentration series of 10^−6 to 10^−10 mol/l. If several measurements were performed, the average thereof was listed each time.

[2] = target: T2, NK-2 receptors (Cavia porcellus, UniProt Q64077); assay: Functional NK-2 antagonism on isolated guinea pig gall-bladder preparations (NKA-induced contraction); assay type: cell-based; conditions: inhibition of contraction caused by NKA 0.1 μmol/l; two hours' incubation; Pirbright-White guinea pig gall-bladder
T2 construct: the NK-2 receptors present in the gall-bladder preparations; from tissue; host or cells: Pirbright-White guinea pig: isolated gall-bladder (A2); anaesthetised whole animal (A3)
T2 sequence (Q64077 1-402): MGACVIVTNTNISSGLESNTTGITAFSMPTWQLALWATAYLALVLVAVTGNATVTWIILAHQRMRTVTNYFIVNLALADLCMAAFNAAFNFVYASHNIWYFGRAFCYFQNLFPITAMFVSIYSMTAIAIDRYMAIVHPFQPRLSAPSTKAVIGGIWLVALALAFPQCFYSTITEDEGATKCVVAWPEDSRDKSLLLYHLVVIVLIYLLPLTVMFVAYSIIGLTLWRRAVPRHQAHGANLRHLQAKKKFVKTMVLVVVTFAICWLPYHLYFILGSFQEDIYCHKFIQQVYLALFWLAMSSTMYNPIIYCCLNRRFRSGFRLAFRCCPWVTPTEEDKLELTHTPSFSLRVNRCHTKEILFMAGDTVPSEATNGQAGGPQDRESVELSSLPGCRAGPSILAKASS
Method: 2. Determination of the Functional Antagonism of the Test Substances on Isolated Guinea Pig Tissue in vitro
The NK-2 receptor-antagonising action of the test substances was determined on isolated gall-bladder preparations from Pirbright-White guinea pigs, held in an oxygen-saturated nutrient solution. To this end, the preparations were fastened on one hand in the nutrient solution to organ holders and on the other hand on a force meter by a thread.
In this test the NK-2 receptors present in the gall-bladder preparations were stimulated with the natural NK-2 receptor agonist neurokinin A (=NKA; 0.1 μmol/l) and the contractions of the preparations caused thereby were measured as contractility in mN (=preliminary value) measured. Then NKA was rinsed out of the preparations with NKA-free solution and the test substances were added in a concentration of 10^−7 mol/l. After two hours' incubation of the preparations with the test substances, the contractions of the preparations then still caused by renewed NKA addition were again measured and the results were given as percentages, relative to the contractions initially measured, caused solely by NKA addition. The concentration of the test substances was increased iteratively in the subsequent experiments as a function of the result in logarithmic whole or half steps, until at least one concentration above or below 50% inhibition of contraction was determined (up to at most 10^−5 mol/l). For each concentration, the average value of inhibition of contraction was calculated from 2 to 4 preparations. In each case, the concentration of half-maximum inhibition (IC50) per test substance was calculated as characteristic variable. In each case the logarithmised value of the IC50 per test substance is given as pIC50 in [mol/l].

[3] = target: T2, NK-2 receptors; assay: NK-2-receptor-antagonistic effectiveness in vivo in anaesthetised guinea pigs (NKA test stimulus); set-up: species or system guinea pig; conditions: for ED50: guinea pig
Source text: 3. Determination of the NK-2-receptor-antagonistic Effectiveness of the Test Substances in vivo
The NK-2- and NK-1-antagonistic activities of the test substances were investigated in anaesthetised guinea pigs in each case after intravenous (=i.v.) and oral (=p.o.) administration in vivio. With the present test model it is possible to detect both NK-2-antagonistic effects in three different organ systems (respiratory tracts, colon and circulation) and NK-1-antagonistic effects (rapid drop in blood pressure) in an animal simultaneously.
Pirbright-White guinea pigs of a body weight of 500-700 g were anaesthetised with ketamine/xylazine (67/13 mg/kg subcutaneously, initial dose, further doses administered as required). The animals were provided with an intravenous catheter in order to administer the substance and an intra-arterial catheter to measure the blood pressure. The animals were artificially ventilated via a tracheal cannula and the respiratory pressure was recorded by means of a pressure transducer. A balloon was introduced into the distal colon of the animals for manometric recording of colon motility by means of a pressure transducer. Blood pressure, heart rate, respiratory pressure and colonic pressure were measured continuously for each animal and plotted on a recorder and by means of a digital data-processing system. Neurokinin A (=NKA; 200 pmol/animal) was administered i.v. as a bolus as a test stimulus to stimulate the NK-1- and the NK-2 receptors. An addition of NKA of this type results in a great increase in respiratory pressure (bronchoconstriction) and colonic pressure, and in a biphasic drop in blood pressure. The first phase of hypotension (=phase of maximum hypotension within the first minute after administration of NKA) is mediated via NK-1 receptors, since they can be blocked completely by specific NK-1 receptor antagonists. The second phase of delayed hypotension (=phase of maximum hypotension after 2-5 min.) on the other hand is mediated via NK-2 receptors, since they can be blocked by specific NK-2 receptor antagonists. The doses of the test substances are given as ED50 values which each result in a response to the NKA test stimulus which is reduced to 50% of the initial value, as characteristic variables for the individual measurement parameters bronchoconstriction, colonic pressure and change in blood pressure mediated by NK-1 or NK-2.
The antagonistic effects of the test substances were first investigated in cumulative form, the time of the NKA test stimulus being 1 min. after the administration of the respective doses of the test substances had ended. These ED50 values obtained from cumulative dose effect curves are plotted in Table 2 below. In order additionally to detect the variation over time of the antagonistic effects of the test substances, the action of the NKA test stimulus was determined at different times (1, 30, 60, 90, 120, 150 and 180 min.) after administration of the test substances.

Question: Which results are given for `CN(CC(CCN1CCN(C(c2ccsc2)[C@H](O)[C@@H](O)[C@H](O)CO)CC1)c1ccc(Cl)c(Cl)c1)C(=O)c1ccccc1` (mixture of isomers) [Example 7]?
Answer: Ki [1]: ≤ 10 nM; IC50 [2]: 0.251 nM

Question: What does the source list for `CN(CC(CCN1CCN(C(c2ccsc2)[C@@H](O)[C@@H](O)[C@H](O)CO)CC1)c1ccc(Cl)c(Cl)c1)C(=O)c1ccccc1` (mixture of isomers) [Example 9]?
Answer: Ki [1]: ≤ 10 nM; IC50 [2]: 0.501 nM

Question: With `CN(CC(CCN1CCN(C(c2ccsc2)[C@@H](O)[C@H](O)[C@H](O)CO)CC1)c1ccc(Cl)c(Cl)c1)C(=O)c1ccccc1` (mixture of isomers) [Example 17] as the compound, how does the Ki [1] read?
Answer: ≤ 10 nM

Question: What about the IC50 [2] of the same compound?
Answer: 0.2 nM

Question: For `CN(C[C@@H](CCN1CCN(C(c2ccsc2)[C@H](O)[C@H](O)CO)CC1)c1ccc(Cl)c(Cl)c1)C(=O)c1ccccc1` (stereo partly drawn) [Example 15, N-((2S)-2-(3,4-dichlorophenyl)-4-{4[(2S,3R)-2,3,4-trihydroxy-1-(3-thienyl)butyl]-1-piperazinyl}-butyl)-N-methylbenzamide], which Ki [1] is on record?
Answer: ≤ 10 nM

Question: And the “NK-2-receptor-antagonistic activity of colon motility, late drop in blood pressure and respiratory resistance (in words)” value ([3]; cumulative administration i.v., antagonism detected 1 min. after administration had ended)?
Answer: marked NK-2-receptor-antagonistic activity

Question: What about the ED50 ([3]; iv, cumulative dosing, NKA stimulus 1 min. after administration, NK-2-mediated late drop in blood pressure, read-out: ED50 Blood pressure, i.v. after 1 min. (cumulative)) of the same compound?
Answer: 0.114 µmol/kg

Question: What about the ED50 ([3]; iv, cumulative dosing, NKA stimulus 1 min. after administration, respiratory resistance (bronchoconstriction), read-out: ED50 Respiratory resistance, i.v. after 1 min. (cumulative)) of the same compound?
Answer: 0.079 µmol/kg

Question: What about the ED50 ([3]; iv, cumulative dosing, NKA stimulus (200 pmol/animal i.v.) 1 min. after administration, colonic pressure, read-out: ED50 Colonic pressure, i.v. after 1 min. (cumulative)) of the same compound?
Answer: 0.041 µmol/kg

Question: And the ED50 ([3]; iv, from AUC of antagonistic effect over 120 min after administration, colonic pressure, read-out: ED50 Colonic pressure, i.v. AUC over 120 min)?
Answer: 0.009 µmol/kg

Question: What about the ED50 ([3]; iv, from AUC over 120 min after administration, NK-2-mediated drop in blood pressure, read-out: ED50 Blood pressure, i.v. AUC over 120 min) of the same compound?
Answer: 0.047 µmol/kg

Question: And the ED50 ([3]; iv, from AUC over 120 min after administration, respiratory resistance, read-out: ED50 Respiratory resistance, i.v. AUC over 120 min)?
Answer: 0.042 µmol/kg

Question: What about the ED50 ([3]; po, from AUC over 180 min after administration, NK-2-mediated drop in blood pressure, read-out: ED50 Blood pressure, p.o. AUC over 180 min.) of the same compound?
Answer: 8.6 µmol/kg

Question: And the ED50 ([3]; po, from AUC over 180 min after administration, colonic pressure, read-out: ED50 Colonic pressure, p.o. AUC over 180 min.)?
Answer: 4.5 µmol/kg

Question: What about the ED50 ([3]; po, from AUC over 180 min after administration, respiratory resistance, read-out: ED50 Respiratory resistance, p.o. AUC over 180 min.) of the same compound?
Answer: 3.2 µmol/kg
